In patent US5395947A, “Platinum(II) complex and processes for preparing the same” (Sunkyong Industries, Ltd., priority 1991, dated 1995):

Assays:
Test for nephrotoxicity = assay type: in vivo, male ICR mice
Description: 4. Test for nephrotoxicity
The compounds of the present invention were dissolved or suspended in 0.5% CMC solution(in water) and were administered intraperitoneally one time to 8-week-old male ICR mice weighing 30±3 g. Each treatment and control groups consisted of six mice.
The administration amount of the test compound was 1.5 times the optimum dose obtained in Table 2, or more. On days 1, 4 and 8 after administration, their blood was collected under ether anesthesia for measurement of blood urea nitrogen concentration (BUN value) and creatinine concentration.
A pair of kidneys were taken and, after immediate weighing, were stored in a 10% neutral buffered formalin solution. The body weight ratio shown in Table 5 is a ratio of the body weight measured on days 1, 4 and 8 from the administration of the compound to the body weight measured on the administration day.

ICR mice = assay: Acute toxicity test; assay type: in vivo; parameters: Lethality: unit not given here; conditions: for Lethality: 10080 min
Method in brief: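 Single i.p. administration to ICR mice (7 weeks old, both sexes, n=6/group); appearance and mortality logged over 7 days, dead animals autopsied for gross pathology.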

[1] = system: murine leukemia L1210 cells; assay: Growth inhibition test on cultured murine leukemia L1210 cells; assay type: cell-based; conditions: 48 hours, 37° C., Trypan blue viability
Method in brief: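 Read-out is Trypan blue (0.17%) viability versus compound-free controls. Cells, 1×10^5, were cultured 48 h at 37° C under 5% CO2 in RPMI 1640/10% FCS containing various compound concentrations.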

murine leukemia L1210 = assay: Antitumor activity test on murine leukemia L1210 in vivo; parameters: species or system male BDF1 mice; conditions: days 1, 5, 9
Method in brief: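 Male BDF1 mice (6 weeks, 21±3 g; n=7) received 1×10^6 leukemia cells into the peritoneum on day 0, then test compound suspended or dissolved in 0.5% CMC i.p. on days 1, 5, 9. Activity expressed as T/C %, mean survival treated versus 0.5% CMC-injected controls.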

[2] = Test for water solubility; assay type: physicochemical; conditions: 20° C.
From the text: 3. Test for water solubility
A standard plot of UV absorbance(220 nm) vs. concentration was made; and employed to determine water-solubility.
The mixture was then passed through a 0.45 micron disposable membrane filter before dilution and UV measurement.

[3] = 150 mg/kg i.p. once, mean ± standard error
[4] = 150 mg/kg i.p. once, vs. administration day

## CC(C)C1OC(CN)C(CN)O1.CC1[O][Pt][O]C1=O [Example 19, (L-lactato-O,O')[(4R,5R)-4,5-bis(aminomethyl)-2-isopropyl-1,3-dioxolane]platinum(II)]
Test for nephrotoxicity; 18.8 mg/kg i.p. once
  BUN, 1st day: 38.6 mg/100 ml
  BUN, 4th day: 27.9 mg/100 ml
  BUN, 8th day: 50.7 mg/100 ml
ICR mice; female, 41.3 mg/kg i.p.
  Number of dead mice for 7 days: 2/6
  Number of dead mice, 1st day: 0/6
  Number of dead mice, 5th day: 1/6
  Number of dead mice, 6th day: 1/5
  Lethality: 33.3
ICR mice; female, 54.9 mg/kg i.p.
  Number of dead mice for 7 days: 4/6
  Number of dead mice, 1st day: 0/6
  Number of dead mice, 3rd day: 1/6
  Number of dead mice, 4th day: 2/5
  Number of dead mice, 5th day: 1/3
  Lethality: 66.7
ICR mice; female, 71.4 mg/kg i.p.
  Number of dead mice for 7 days: 5/6
  Number of dead mice, 1st day: 0/6
  Number of dead mice, 4th day: 1/6
  Number of dead mice, 5th day: 3/5
  Number of dead mice, 6th day: 1/2
  Lethality: 83.3
ICR mice; female, 91.8 mg/kg i.p.
  Number of dead mice for 7 days: 6/6
  Number of dead mice, 1st day: 0/6
  Number of dead mice, 2nd day: 1/6
  Number of dead mice, 3rd day: 2/5
  Number of dead mice, 4th day: 2/3
  Number of dead mice, 5th day: 1/1
  Lethality: 100.0
ICR mice; male, 41.3 mg/kg i.p.
  Number of dead mice for 7 days: 3/6
  Number of dead mice, 1st day: 0/6
  Number of dead mice, 5th day: 1/6
  Number of dead mice, 6th day: 2/5
  Lethality: 50.0
ICR mice; male, 54.9 mg/kg i.p.
  Number of dead mice for 7 days: 4/6
  Number of dead mice, 1st day: 0/6
  Number of dead mice, 4th day: 1/6
  Number of dead mice, 5th day: 2/5
  Number of dead mice, 6th day: 1/3
  Lethality: 66.7
ICR mice; male, 71.4 mg/kg i.p.
  Number of dead mice for 7 days: 5/6
  Number of dead mice, 1st day: 0/6
  Number of dead mice, 4th day: 1/6
  Number of dead mice, 5th day: 2/5
  Number of dead mice, 6th day: 2/3
  Lethality: 83.7
ICR mice; male, 91.8 mg/kg i.p.
  Number of dead mice for 7 days: 6/6
  Number of dead mice, 1st day: 0/6
  Number of dead mice, 2nd day: 1/6
  Number of dead mice, 3rd day: 4/5
  Number of dead mice, 5th day: 1/1
  Lethality: 100.0
[1]
  IC50 (concentration required for 50% inhibition of growth): 0.29 µg/mL
Murine leukemia L1210; 12.5 mg/kg i.p.
  T/C (%): 208%
Murine leukemia L1210; 25 mg/kg i.p.
  T/C (%): 232%
Murine leukemia L1210; 50 mg/kg i.p.
  T/C (%): toxic

## CC1OC2C[NH2+][Pt-2]3([NH2+]CC2O1)[O]C(=O)C1(CCC1)C(=O)[O]3 [Example 23, cis-cyclobutane-1,1-dicarboxylato[(4S,5S)-4,5-bis(aminomethyl)-2-methyl-1,3-dioxolane]platinum(II)]
Test for nephrotoxicity; 150 mg/kg i.p. once
  BUN, 1st day: 24.8 mg/100 ml
  BUN, 4th day: 32.1 mg/100 ml
  BUN, 8th day: 42.0 mg/100 ml
  Creatinine, 1st day: 0.26 mg/100 ml
  Creatinine, 4th day: 0.30 mg/100 ml
  Creatinine, 8th day: 0.28 mg/100 ml
Test for nephrotoxicity; [3]
  Kidney wt (paired weight), 1st day: 492 ± 22.7 mg
  Kidney wt (paired weight), 4th day: 535 ± 16.3 mg
  Kidney wt (paired weight), 8th day: 527 ± 13.8 mg
Test for nephrotoxicity; [4]
  body weight ratio (BWR), 1st day: 0.98
  body weight ratio (BWR), 4th day: 0.96
  body weight ratio (BWR), 8th day: 0.99
[2]
  Solubility in water: 22.1 mg/mL
[1]
  IC50 (concentration required for 50% inhibition of growth): 1.75 µg/mL
Murine leukemia L1210; 6.2 mg/kg i.p.
  T/C (%): 108%
Murine leukemia L1210; 12.5 mg/kg i.p.
  T/C (%): 115%
Murine leukemia L1210; 25 mg/kg i.p.
  T/C (%): 150%
Murine leukemia L1210; 50 mg/kg i.p.
  T/C (%): 201%
Murine leukemia L1210; 100 mg/kg i.p.
  T/C (%): 254%
